Assay results published in PubChem BioAssay (NCI).
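Tested at 5 concentrations; 48 h exposure; 96-well plates; endpoints linearly interpolated, else capped at highest concentration. Here, GI50 denotes the concentration required for 50% inhibition of growth. TGI: total growth inhibition.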 Activity calls are given as the source filed them. No stated cut-off is given here; in the data, active means GI50 below about 0.43 µM; inactive means the rest.

How the values were obtained:
Assay in all cases: growth of human tumour cells (NCI), 48 h
786-0 renal = system: 786-0 renal
A498 renal = system: A498 renal
A549 NSCLC = system: A549 NSCLC
ACHN renal = system: ACHN renal
BT-549 breast = system: BT-549 breast
CAKI-1 renal = system: CAKI-1 renal
CCRF-CEM leukemia = system: CCRF-CEM leukemia
COLO 205 colon = system: COLO 205 colon
DU-145 prostate = system: DU-145 prostate
EKVX NSCLC = system: EKVX NSCLC
HCC-2998 colon = system: HCC-2998 colon
HCT-116 colon = system: HCT-116 colon
HCT-15 colon = system: HCT-15 colon
HOP-62 NSCLC = system: HOP-62 NSCLC
HOP-92 NSCLC = system: HOP-92 NSCLC
HS 578T breast = system: HS 578T breast
HT29 colon = system: HT29 colon
IGROV1 ovarian = system: IGROV1 ovarian
K-562 leukemia = system: K-562 leukemia
KM12 colon = system: KM12 colon
LOX IMVI melanoma = system: LOX IMVI melanoma
M14 melanoma = system: M14 melanoma
MALME-3M melanoma = system: MALME-3M melanoma
MCF7 breast = system: MCF7 breast
MDA-MB-231 breast = system: MDA-MB-231 breast
MDA-MB-435 = system: MDA-MB-435
MOLT-4 leukemia = system: MOLT-4 leukemia
NCI-H226 lung = system: NCI-H226 lung
NCI-H23 lung = system: NCI-H23 lung
NCI/ADR-RES ovarian = system: NCI/ADR-RES ovarian
OVCAR-3 ovarian = system: OVCAR-3 ovarian
OVCAR-4 ovarian = system: OVCAR-4 ovarian
OVCAR-5 ovarian = system: OVCAR-5 ovarian
OVCAR-8 ovarian = system: OVCAR-8 ovarian
PC-3 prostate = system: PC-3 prostate
RPMI-8226 leukemia = system: RPMI-8226 leukemia
SF-268 CNS = system: SF-268 CNS
SF-295 CNS = system: SF-295 CNS
SF-539 CNS = system: SF-539 CNS
SK-MEL-2 melanoma = system: SK-MEL-2 melanoma
SK-MEL-28 melanoma = system: SK-MEL-28 melanoma
SK-MEL-5 melanoma = system: SK-MEL-5 melanoma
SK-OV-3 ovarian = system: SK-OV-3 ovarian
SN12C renal = system: SN12C renal
SNB-19 CNS = system: SNB-19 CNS
SNB-75 CNS = system: SNB-75 CNS
SR leukemia = system: SR leukemia
SW-620 colon = system: SW-620 colon
T-47D breast = system: T-47D breast
TK-10 renal = system: TK-10 renal
U251 CNS = system: U251 CNS
UACC-257 melanoma = system: UACC-257 melanoma
UACC-62 melanoma = system: UACC-62 melanoma
UO-31 renal = system: UO-31 renal
NCI-H460 lung = system: NCI-H460 lung
RXF 393 renal = system: RXF 393 renal
HL-60(TB) leukemia = system: HL-60(TB) leukemia
NCI-H522 lung = system: NCI-H522 lung

## COC(=O)CN1SC2(SC13C(C)(C)C(=O)C3(C)C)C(C)(C)C(=O)C2(C)C
786-0 renal
  TGI: > 100 µM
A498 renal
  TGI: > 100 µM
A549 NSCLC
  TGI: > 100 µM
ACHN renal
  TGI: > 100 µM
BT-549 breast
  TGI: 90.3 µM
CAKI-1 renal
  TGI: > 100 µM
CCRF-CEM leukemia
  TGI: 32.8 µM
COLO 205 colon
  TGI: > 100 µM
DU-145 prostate
  TGI: > 100 µM
EKVX NSCLC
  TGI: > 100 µM
HCC-2998 colon
  TGI: > 100 µM
HCT-116 colon
  TGI: > 100 µM
HCT-15 colon
  TGI: > 100 µM
HOP-62 NSCLC
  TGI: > 100 µM
HOP-92 NSCLC
  TGI: 21.3 µM
HS 578T breast
  TGI: > 100 µM
HT29 colon
  TGI: > 100 µM
IGROV1 ovarian
  TGI: > 100 µM
K-562 leukemia
  TGI: > 100 µM
KM12 colon
  TGI: > 100 µM
LOX IMVI melanoma
  TGI: > 100 µM
M14 melanoma
  TGI: > 100 µM
MALME-3M melanoma
  TGI: > 100 µM
MCF7 breast
  TGI: > 100 µM
MDA-MB-231 breast
  TGI: > 100 µM
MDA-MB-435
  TGI: > 100 µM
MOLT-4 leukemia
  TGI: > 100 µM
NCI-H226 lung
  TGI: 93.8 µM
NCI-H23 lung
  TGI: > 100 µM
NCI/ADR-RES ovarian
  TGI: 87.8 µM
OVCAR-3 ovarian
  TGI: > 100 µM
OVCAR-4 ovarian
  TGI: > 100 µM
OVCAR-5 ovarian
  TGI: > 100 µM
OVCAR-8 ovarian
  TGI: > 100 µM
PC-3 prostate
  TGI: > 100 µM
RPMI-8226 leukemia
  TGI: > 100 µM
SF-268 CNS
  TGI: > 100 µM
SF-295 CNS
  TGI: > 100 µM
SF-539 CNS
  TGI: > 100 µM
SK-MEL-2 melanoma
  TGI: > 100 µM
SK-MEL-28 melanoma
  TGI: > 100 µM
SK-MEL-5 melanoma
  TGI: > 100 µM
SK-OV-3 ovarian
  TGI: > 100 µM
SN12C renal
  TGI: > 100 µM
SNB-19 CNS
  TGI: > 100 µM
SNB-75 CNS
  TGI: > 100 µM
SR leukemia
  TGI: > 100 µM
SW-620 colon
  TGI: > 100 µM
T-47D breast
  TGI: > 100 µM
TK-10 renal
  TGI: > 100 µM
U251 CNS
  TGI: > 100 µM
UACC-257 melanoma
  TGI: > 100 µM
UACC-62 melanoma
  TGI: > 100 µM
UO-31 renal
  TGI: > 100 µM

## O=c1[nH]c(C2CCCCC2)nc2c(Cl)cccc12
MOLT-4 leukemia
  outcome: inactive
RPMI-8226 leukemia
  outcome: inactive
SR leukemia
  outcome: inactive

## COc1cccc2c1/c(=C/c1ccc(N(C)C)cc1)c1cc(-c3ccccc3)[n+](C)n12
786-0 renal
  TGI: 1.1 µM
A498 renal
  TGI: 1.3 µM
A549 NSCLC
  TGI: 2.5 µM
ACHN renal
  TGI: 0.8 µM
BT-549 breast
  TGI: 0.774 µM
CCRF-CEM leukemia
  TGI: 1.45 µM
DU-145 prostate
  TGI: 1.75 µM
HCC-2998 colon
  TGI: 1.08 µM
HCT-116 colon
  TGI: 0.765 µM
HOP-62 NSCLC
  TGI: 2.08 µM
HT29 colon
  TGI: 0.129 µM
K-562 leukemia
  TGI: 1.39 µM
M14 melanoma
  TGI: 1.08 µM
MALME-3M melanoma
  TGI: 0.684 µM
MCF7 breast
  TGI: 1.29 µM
MDA-MB-231 breast
  TGI: 2.2 µM
MDA-MB-435
  TGI: 1.65 µM
MOLT-4 leukemia
  TGI: 0.623 µM
NCI-H460 lung
  TGI: 0.949 µM
NCI/ADR-RES ovarian
  TGI: > 100 µM
OVCAR-3 ovarian
  TGI: 1.5 µM
OVCAR-4 ovarian
  TGI: 3.16 µM
OVCAR-5 ovarian
  TGI: 1.66 µM
RPMI-8226 leukemia
  TGI: 1.27 µM
RXF 393 renal
  TGI: 1.94 µM
SF-268 CNS
  TGI: 1.37 µM
SF-539 CNS
  TGI: 14.9 µM
SK-MEL-5 melanoma
  TGI: 0.312 µM
SNB-19 CNS
  TGI: 1.72 µM
SNB-75 CNS
  TGI: 0.997 µM
SR leukemia
  TGI: 0.899 µM
TK-10 renal
  TGI: 1.03 µM
U251 CNS
  TGI: 1.32 µM
UACC-257 melanoma
  TGI: 0.692 µM
UO-31 renal
  TGI: 0.802 µM

## CC1OC(OC2C(OC(=O)[C@@H]3CC(C)(C)C[C@@H]4C5=CC[C@@H]6[C@@]7(C)C[C@H](O)[C@H](OC8OC(CO)C(O)C(O)C8O)[C@@](C)(CO)C7[C@H](O)C[C@@]6(C)[C@]5(C)C[C@@H](O)[C@H]43)OCC(O)C2O)C(O)C(O)C1O (stereo not given in full)
786-0 renal
  TGI: > 15 µM
ACHN renal
  TGI: > 15 µM
BT-549 breast
  TGI: > 15 µM
CAKI-1 renal
  TGI: > 15 µM
CCRF-CEM leukemia
  TGI: > 15 µM
COLO 205 colon
  TGI: > 15 µM
DU-145 prostate
  TGI: > 15 µM
EKVX NSCLC
  TGI: > 15 µM
HCC-2998 colon
  TGI: > 15 µM
HCT-116 colon
  TGI: > 15 µM
HCT-15 colon
  TGI: > 15 µM
HL-60(TB) leukemia
  TGI: > 15 µM
HOP-62 NSCLC
  TGI: > 15 µM
HOP-92 NSCLC
  TGI: > 15 µM
HS 578T breast
  TGI: > 15 µM
HT29 colon
  TGI: > 15 µM
IGROV1 ovarian
  TGI: > 15 µM
K-562 leukemia
  TGI: > 15 µM
KM12 colon
  TGI: > 15 µM
LOX IMVI melanoma
  TGI: > 15 µM
M14 melanoma
  TGI: > 15 µM
MCF7 breast
  TGI: > 15 µM
MDA-MB-231 breast
  TGI: > 15 µM
MDA-MB-435
  TGI: > 15 µM
MOLT-4 leukemia
  TGI: > 15 µM
NCI-H226 lung
  TGI: > 15 µM
NCI-H23 lung
  TGI: > 15 µM
NCI-H460 lung
  TGI: > 15 µM
NCI-H522 lung
  TGI: > 15 µM
NCI/ADR-RES ovarian
  TGI: > 15 µM
OVCAR-3 ovarian
  TGI: > 15 µM
OVCAR-4 ovarian
  TGI: > 15 µM
OVCAR-5 ovarian
  TGI: > 15 µM
OVCAR-8 ovarian
  TGI: > 15 µM
PC-3 prostate
  TGI: > 15 µM
RXF 393 renal
  TGI: > 15 µM
SF-268 CNS
  TGI: > 15 µM
SF-295 CNS
  TGI: > 15 µM
SF-539 CNS
  TGI: > 15 µM
SK-MEL-2 melanoma
  TGI: > 15 µM
SK-MEL-5 melanoma
  TGI: > 15 µM
SK-OV-3 ovarian
  TGI: > 15 µM
SN12C renal
  TGI: > 15 µM
SNB-19 CNS
  TGI: > 15 µM
SNB-75 CNS
  TGI: > 15 µM
SW-620 colon
  TGI: > 15 µM
T-47D breast
  TGI: > 15 µM
TK-10 renal
  TGI: > 15 µM
U251 CNS
  TGI: > 15 µM
UACC-257 melanoma
  TGI: > 15 µM
UACC-62 melanoma
  TGI: > 15 µM
UO-31 renal
  TGI: > 15 µM

## NC(N)=N/N=C/c1c(-c2cc([N+](=O)[O-])c(Cl)cc2Cl)nc2sccn12
786-0 renal
  TGI: 3.11 µM
CAKI-1 renal
  TGI: 33.7 µM
COLO 205 colon
  GI50: 1.38 µM
  TGI: 2.84 µM
HCC-2998 colon
  GI50: 1.36 µM
  TGI: 2.76 µM
HCT-116 colon
  GI50: 0.272 µM
  TGI: 1.02 µM
HL-60(TB) leukemia
  TGI: 4.31 µM
HOP-62 NSCLC
  TGI: 3.44 µM
HT29 colon
  GI50: 1.79 µM
  TGI: 3.18 µM
IGROV1 ovarian
  GI50: 0.712 µM
  TGI: 2.03 µM
NCI/ADR-RES ovarian
  TGI: > 100 µM
OVCAR-5 ovarian
  TGI: 3.39 µM
SK-MEL-28 melanoma
  TGI: 2.67 µM
SK-OV-3 ovarian
  TGI: 3.39 µM
SNB-19 CNS
  GI50: 0.274 µM
  TGI: 56.3 µM
UO-31 renal
  TGI: 2.6 µM
